Values quoted from earlier work as cited in publication PMC4132888 (Biopolymers, 2014).
Where no end group is shown, it is not given here. [ ]: non-standard residue; d: D form.

Columns and labels:
[1] = target: T1, rat δ opioid receptor (DOR) (Rattus norvegicus, UniProt P33533); conditions: previously reported; ref [13]
[2] = target: T1, rat δ opioid receptor (DOR); conditions: previously reported; ref [13]; remark: listed apart in the source
[3] = target: T2, rat μ opioid receptor (MOR) (Rattus norvegicus, UniProt P33535); conditions: previously reported; ref [13]
T2 sequence (P33535 whole entry): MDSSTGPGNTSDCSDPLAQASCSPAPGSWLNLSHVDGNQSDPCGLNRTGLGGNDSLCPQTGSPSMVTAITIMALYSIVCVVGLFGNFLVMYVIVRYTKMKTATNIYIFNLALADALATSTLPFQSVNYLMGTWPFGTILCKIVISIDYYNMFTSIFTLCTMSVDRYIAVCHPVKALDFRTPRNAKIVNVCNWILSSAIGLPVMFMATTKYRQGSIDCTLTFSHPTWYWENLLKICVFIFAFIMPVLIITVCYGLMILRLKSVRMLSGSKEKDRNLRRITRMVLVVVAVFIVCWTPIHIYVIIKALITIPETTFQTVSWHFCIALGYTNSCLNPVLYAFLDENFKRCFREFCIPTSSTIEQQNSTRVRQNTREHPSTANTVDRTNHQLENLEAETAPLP

[4] = target: T2, rat μ opioid receptor (MOR); conditions: previously reported; ref [13]; remark: listed apart in the source
DOR = conditions: read-out: Binding DOR; ref [33]
MOR = conditions: read-out: Binding MOR; ref [33]

T1 sequence (P33533 whole entry): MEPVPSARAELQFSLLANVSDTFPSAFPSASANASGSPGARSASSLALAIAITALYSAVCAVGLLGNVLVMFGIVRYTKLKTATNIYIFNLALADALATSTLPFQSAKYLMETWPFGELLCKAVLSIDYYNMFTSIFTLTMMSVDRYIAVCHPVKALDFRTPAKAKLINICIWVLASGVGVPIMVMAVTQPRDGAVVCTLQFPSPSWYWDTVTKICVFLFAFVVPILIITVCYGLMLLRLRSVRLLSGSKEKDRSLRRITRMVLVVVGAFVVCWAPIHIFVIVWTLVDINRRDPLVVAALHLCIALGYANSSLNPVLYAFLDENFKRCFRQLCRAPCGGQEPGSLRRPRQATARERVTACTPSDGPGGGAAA

Substance: Dmt-c(S-Et-S)[DCys-Aic-DPen]OH [KSK-103]
- Stimulation of DOR (in words) [1]: no stimulation
- Binding for DOR (in words) [2]: low nanomolar binding
- Agonist activity at MOR (in words) [3]: moderate agonist activity
- Binding for MOR (in words) [4]: low nanomolar binding

Substance: Y[dT]GFLS-NH2 [DTLES]
- Ki (DOR): 4.1 ± 0.41 nM
- Ki (KOR; read-out: Binding KOR, ref [33]): 34 ± 2.2 nM
- Ki (MOR): 1.4 ± 0.08 nM

Substance: Tyr-DThr-Gly-Phe-Leu-Ser-(O-β-D-lactose)-NH2 [MMP-2200]
- KOR affinity (in words) (KOR; ref Polt and co-workers): high KOR affinity
